# Test system: Human bone marrow CD34+ cells
# Experiment: Megakaryocyte colony stimulating activity (megakaryocyte colony forming method)
# Assay type: cell-based
# Settings: 11 days
# Method: The action of the compounds of Synthetic Examples 1 to 43 of the present invention and Reference Synthetic Examples 29 and 30 on the proliferation, differentiation and maturation of megakaryocyte cells was measured by the megakaryocyte colony forming method using human bone marrow cells. Human bone marrow CD34^+ cells (Cambrex Bio Science Walkersville) were incubated on 2-well chamber slide for 11 days in a CO2 incubator (5% CO2, 37° C.) using MegaCult™-C (StemCell Technologies) containing 0.1% (v/v) of the compounds of Synthetic Examples dissolved in dimethyl sulfoxide. After dehydration and fixation, the cells were stained with an anti-glycoprotein IIb/IIIa antibody in accordance with the instruction by the manufacturer. The colonies consisting of at least 8 stained megakaryocyte cells in each well were counted under a microscope. The megakaryocyte colony counts in at least 2 wells were averaged.
structure (smiles),measurement,setting,value
"C/C(=N\NC(=O)c1ccc(C(=O)O)cc1)c1csc(-c2ccc(Cl)c(Cl)c2)c1O [Reference Synthetic Ex. 29, reference compound]",Megakaryocyte colony count,drug concentration 0.1 μg/mL,2
same,Megakaryocyte colony count,drug concentration 1 μg/mL,31
"C/C(=N\NC(=O)c1ccc(C(=O)O)s1)c1csc(-c2ccc(Cl)c(Cl)c2)c1O [Reference Synthetic Ex. 30, reference compound]",Megakaryocyte colony count,drug concentration 0.1 μg/mL,12
same,Megakaryocyte colony count,drug concentration 0.3 μg/mL,34
same,Megakaryocyte colony count,drug concentration 1 μg/mL,87
"CC(=NNC(=O)c1ccc(C(=O)N2CCN(C(C)C)CC2)s1)c1csc(-c2ccc(Cl)c(Cl)c2)c1O [Synthetic Ex. 1, 5-(4-isopropylpiperazine-1-carbonyl)thiophene-2-carboxylic acid {1-[5-(3,4-dichlorophenyl)-4-hydroxythiophen-3-yl]ethylidene}hydrazide]",Megakaryocyte colony count,drug concentration 1 μg/mL,154
"CC(=NNC(=O)c1ccc(C(=O)N2CCOCC2)s1)c1csc(-c2ccc(Cl)c(Cl)c2)c1O.[K] [Synthetic Ex. 2, 5-(morpholine-4-carbonyl)thiophene-2-carboxylic acid {1-[5-(3,4-dichlorophenyl)-4-hydroxythiophen-3-yl]ethylidene}hydrazide potassium salt]",Megakaryocyte colony count,drug concentration 1 μg/mL,239
"CCN(CC)C(=O)c1ccc(C(=O)NN=C(C)c2csc(-c3ccc(Cl)c(Cl)c3)c2O)s1.[K] [Synthetic Ex. 3, 5-{1-[5-(3,4-dichlorophenyl)-4-hydroxythiophen-3-yl]ethylidenehydrazinocarbonyl}thiophene-2-carboxylic acid diethylamide potassium salt]",Megakaryocyte colony count,drug concentration 1 μg/mL,348
"CC(=NNC(=O)c1ccc(C(=O)N2CCCC2)s1)c1csc(-c2ccc(Cl)c(Cl)c2)c1O.[K] [Synthetic Ex. 4, 5-(pyrrolidine-1-carbonyl)thiophene-2-carboxylic acid {1-[5-(3,4-dichlorophenyl)-4-hydroxythiophen-3-yl]ethylidene}hydrazide potassium salt]",Megakaryocyte colony count,drug concentration 0.1 μg/mL,84
same,Megakaryocyte colony count,drug concentration 1 μg/mL,148
"CC(=NNC(=O)c1ccc(C(=O)N(C)C)s1)c1csc(-c2ccc(Cl)c(Cl)c2)c1O.[K] [Synthetic Ex. 5, 5-{1-[5-(3,4-dichlorophenyl)-4-hydroxythiophen-3-yl]ethylidenehydrazinocarbonyl}thiophene-2-carboxylic acid dimethylamide potassium salt]",Megakaryocyte colony count,drug concentration 1 μg/mL,274
"COCCNC(=O)c1ccc(C(=O)NN=C(C)c2csc(-c3ccc(Cl)c(Cl)c3)c2O)s1.[K] [Synthetic Ex. 6, 5-{1-[5-(3,4-dichlorophenyl)-4-hydroxythiophen-3-yl]ethylidenehydrazinocarbonyl}thiophene-2-carboxylic acid 2-methoxyethylamide potassium salt]",Megakaryocyte colony count,drug concentration 0.1 μg/mL,115
same,Megakaryocyte colony count,drug concentration 1 μg/mL,151
"CCN(CC)C(=O)c1ccc(C(=O)NN=C(C)c2csc(-c3ccc(C(F)(F)F)cc3)c2O)s1 [Synthetic Ex. 8, 5-{1-[5-(4-trifluoromethylphenyl)-4-hydroxythiophen-3-yl]ethylidenehydrazinocarbonyl}thiophene-2-carboxylic acid diethylamide]",Megakaryocyte colony count,drug concentration 0.1 μg/mL,147
same,Megakaryocyte colony count,drug concentration 1 μg/mL,227
"CC(=NNC(=O)c1ccc(C(=O)N2CCCC2)s1)c1csc(-c2ccc(C(F)(F)F)cc2)c1O.[K] [Synthetic Ex. 10, 5-(pyrrolidine-1-carbonyl)thiophene-2-carboxylic acid {1-[5-(4-trifluoromethylphenyl)-4-hydroxythiophen-3-yl]ethylidene}hydrazide potassium salt]",Megakaryocyte colony count,drug concentration 0.1 μg/mL,105
same,Megakaryocyte colony count,drug concentration 1 μg/mL,208
"CC(=NNC(=O)c1ccc(C(=O)N(C)Cc2ccccn2)s1)c1csc(-c2ccc(C(F)(F)F)cc2)c1O.[K] [Synthetic Ex. 13, 5-{1-[5-(4-trifluoromethylphenyl)-4-hydroxythiophen-3-yl]ethylidenehydrazinocarbonyl}thiophene-2-carboxylic acid methyl-2-picolylamide potassium salt]",Megakaryocyte colony count,drug concentration 0.1 μg/mL,61
"CC(=NNC(=O)c1ccc(C(=O)NCc2cccnc2)s1)c1csc(-c2ccc(Br)cc2)c1O [Synthetic Ex. 17, 5-{1-[5-(4-bromophenyl)-4-hydroxythiophen-3-yl]ethylidenehydrazinocarbonyl}thiophene-2-carboxylic acid 3-picolylamide]",Megakaryocyte colony count,drug concentration 1 μg/mL,146
"CC(=NNC(=O)c1ccc(C(=O)NCc2ccncc2)s1)c1csc(-c2ccc(Br)cc2)c1O [Synthetic Ex. 18, 5-{1-[5-(4-bromophenyl)-4-hydroxythiophen-3-yl]ethylidenehydrazinocarbonyl]thiophene-2-carboxylic acid 4-picolylamide]",Megakaryocyte colony count,drug concentration 1 μg/mL,125
"CC(=NNC(=O)c1ccc(C(=O)NCc2ccco2)s1)c1csc(-c2ccc(Br)cc2)c1O [Synthetic Ex. 19, 5-{1-[5-(4-bromophenyl)-4-hydroxythiophen-3-yl]ethylidenehydrazinocarbonyl}thiophene-2-carboxylic acid furan-2-ylmethylamide]",Megakaryocyte colony count,drug concentration 1 μg/mL,171
"CNC(=O)c1ccc(C(=O)NN=C(C)c2csc(-c3ccc(Br)cc3)c2O)s1 [Synthetic Ex. 20, 5-{1-[5-(4-bromophenyl)-4-hydroxythiophen-3-yl]ethylidenehydrazinocarbonyl}thiophene-2-carboxylic acid methylamide]",Megakaryocyte colony count,drug concentration 1 μg/mL,185
"CC(=NNC(=O)c1ccc(C(=O)NC(C)C)s1)c1csc(-c2ccc(Br)cc2)c1O [Synthetic Ex. 21, 5-{1-[5-(4-bromophenyl)-4-hydroxythiophen-3-yl]ethylidenehydrazinocarbonyl}thiophene-2-carboxylic acid isopropylamide]",Megakaryocyte colony count,drug concentration 0.1 μg/mL,85
C/C(=N\NC(=O)c1ccc(C(=O)NCc2ccccn2)s1)c1csc(-c2ccc(OC(F)(F)F)cc2)c1O [Synthetic Ex. 22],Megakaryocyte colony count,drug concentration 0.1 μg/mL,96
"CC(=NNC(=O)c1ccc(C(=O)NC(C)C)s1)c1csc(-c2ccc(C(F)(F)F)cc2)c1O [Synthetic Ex. 23, 5-{1-[5-(4-trifluoromethylphenyl)-4-hydroxythiophen-3-yl]ethylidenehydrazinocarbonyl}thiophene-2-carboxylic acid isopropylamide]",Megakaryocyte colony count,drug concentration 1 μg/mL,134
"C/C(=N\NC(=O)c1ccc(C(=O)NCc2ccncc2)s1)c1csc(-c2ccc(Cl)cc2)c1O [Synthetic Ex. 24, 5-{1-5-[(4-chlorophenyl)-4-hydroxythiophen-3-yl]ethylidenehydrazinocarbonyl}thiophene-2-carboxylic acid 4-picolylamide]",Megakaryocyte colony count,drug concentration 1 μg/mL,164
"CC(=NNC(=O)c1ccc(C(=O)NCc2ccccn2)s1)c1csc(-c2ccc(Cl)cc2)c1O [Synthetic Ex. 25, 5-{1-[5-(4-chlorophenyl)-4-hydroxythiophen-3-yl]ethylidenehydrazinocarbonyl]thiophene-2-carboxylic acid 2-picolylamide]",Megakaryocyte colony count,drug concentration 1 μg/mL,118
"CC(=NNC(=O)c1ccc(C(=O)NCc2cccnc2)s1)c1csc(-c2ccc(Cl)cc2)c1O [Synthetic Ex. 26, 5-{1-[5-(4-chlorophenyl)-4-hydroxythiophen-3-yl]ethylidenehydrazinocarbonyl}thiophene-2-carboxylic acid 3-picolylamide]",Megakaryocyte colony count,drug concentration 1 μg/mL,182
"CNC(=O)c1ccc(C(=O)NN=C(C)c2csc(-c3ccc(Cl)cc3)c2O)s1 [Synthetic Ex. 27, 5-{1-[5-(4-chlorophenyl)-4-hydroxythiophen-3-yl]ethylidenehydrazinocarbonyl}thiophene-2-carboxylic acid methylamide]",Megakaryocyte colony count,drug concentration 1 μg/mL,201
"CC(=NNC(=O)c1ccc(C(=O)NC(C)C)s1)c1csc(-c2ccc(C)c(C)c2)c1O [Synthetic Ex. 28, 5-{1-[5-(3,4-dimethylphenyl)-4-hydroxythiophen-3-yl]ethylidenehydrazinocarbonyl]thiophene-2-carboxylic acid isopropylamide]",Megakaryocyte colony count,drug concentration 1 μg/mL,105
"CC(=NNC(=O)c1ccc(C(=O)NCc2ccccn2)s1)c1csc(-c2ccc(Cl)c(Cl)c2)c1O [Synthetic Ex. 29, 5-{1-[5-(3,4-dichlorophenyl)-4-hydroxythiophen-3-yl]ethylidenehydrazinocarbonyl}thiophene-2-carboxylic acid 2-picolylamide]",Megakaryocyte colony count,drug concentration 0.1 μg/mL,62
"CC(=NNC(=O)c1ccc(C(=O)NCc2ccncc2)s1)c1csc(-c2ccc(Cl)c(Cl)c2)c1O [Synthetic Ex. 30, 5-{1-[5-(3,4-dichlorophenyl)-4-hydroxythiophen-3-yl]ethylidenehydrazinocarbonyl}thiophene-2-carboxylic acid 4-picolylamide]",Megakaryocyte colony count,drug concentration 0.1 μg/mL,145
same,Megakaryocyte colony count,drug concentration 1 μg/mL,271
"CC(=NNC(=O)c1ccc(C(=O)NCCc2ccncc2)s1)c1csc(-c2ccc(Cl)c(Cl)c2)c1O [Synthetic Ex. 31, 5-{1-[5-(3,4-dichlorophenyl)-4-hydroxythiophen-3-yl]ethylidenehydrazinocarbonyl}thiophene-2-carboxylic acid 2-(pyridin-4-yl)ethylamide]",Megakaryocyte colony count,drug concentration 0.1 μg/mL,70
same,Megakaryocyte colony count,drug concentration 1 μg/mL,136
"CC(=NNC(=O)c1ccc(C(=O)NCc2ccnn2C)s1)c1csc(-c2ccc(Cl)c(Cl)c2)c1O [Synthetic Ex. 32, 5-{1-[5-(3,4-dichlorophenyl)-4-hydroxythiophen-3-yl]ethylidenehydrazinocarbonyl}thiophene-2-carboxylic acid (1-methyl-1H-pyrazol-5-ylmethyl)amide]",Megakaryocyte colony count,drug concentration 0.1 μg/mL,55
"CC(=NNC(=O)c1ccc(C(=O)NCc2cc(C)on2)s1)c1csc(-c2ccc(Cl)c(Cl)c2)c1O [Synthetic Ex. 33, 5-{1-[5-(3,4-dichlorophenyl)-4-hydroxythiophen-3-yl]ethylidenehydrazinocarbonyl}thiophene-2-carboxylic acid (5-methylisoxazol-3-ylmethyl)amide]",Megakaryocyte colony count,drug concentration 0.1 μg/mL,53
